# Results taken from patent US8957074B2 (Novartis AG, priority 2010, dated 2015).
# Where two headings read alike, the source gives them in different places.
# What was measured:
# [1] = biological target: CDK1/cyclin B (Homo sapiens (Human), UniProt P06493); experiment: CDK1/cyclin B enzymatic activity assay (IMAP-FP); assay type: biochemical; details: 100 nM Tamra Histone-H1 peptide, 20 μM ATP, 120 min at room temperature, read-out: Biochemical CDK1 enzyme IC50
# Source text: CDK1/Cyclin B Enzymatic Activity Assay
# A 384-well microtiter IMAP-FP™ (Molecular Devices Trade Mark Technology) endpoint assay was used for CDK1/cyclin B kinase activity measurements. The same assay was used for IC50 determination of small molecule inhibitors.
# [2] = biological target: CDK4/cyclin D1 (Homo sapiens (Human), UniProt P11802); experiment: CDK4/cyclin D1 enzymatic activity assay (TR-FRET, phosphorylation of pRb at Ser780); assay type: biochemical
# Sequence of CDK4/cyclin D1 (P11802 whole entry): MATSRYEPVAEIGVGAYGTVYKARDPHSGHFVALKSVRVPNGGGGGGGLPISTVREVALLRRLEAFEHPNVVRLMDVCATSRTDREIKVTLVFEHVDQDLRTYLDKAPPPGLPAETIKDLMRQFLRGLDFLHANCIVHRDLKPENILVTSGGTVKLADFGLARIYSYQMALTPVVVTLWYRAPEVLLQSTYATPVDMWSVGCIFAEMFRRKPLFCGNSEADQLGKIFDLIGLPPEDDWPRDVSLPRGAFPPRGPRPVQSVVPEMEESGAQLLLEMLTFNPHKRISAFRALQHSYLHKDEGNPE
# Sequence of CDK4/cyclin D1 (P24385 whole entry partner): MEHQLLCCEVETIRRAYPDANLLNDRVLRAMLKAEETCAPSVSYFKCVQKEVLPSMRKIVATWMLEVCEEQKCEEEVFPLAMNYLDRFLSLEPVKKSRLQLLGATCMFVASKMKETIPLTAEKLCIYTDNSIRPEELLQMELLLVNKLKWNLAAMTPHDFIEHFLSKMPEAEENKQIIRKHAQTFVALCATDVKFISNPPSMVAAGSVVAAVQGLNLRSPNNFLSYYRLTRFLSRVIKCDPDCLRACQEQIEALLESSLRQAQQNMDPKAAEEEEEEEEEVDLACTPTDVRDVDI
# In short: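 Phosphorylation at pRb Ser780, detected by TR-FRET, gave IC50s and kinetics. Enzyme: baculovirus/Sf21-expressed human CDK4/cyclin D1. ATP at 3 μM initiated the reaction; EDTA (pH 8.0) stopped it after 60 min at 22° C.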
# [3] = system: phosphorylation of pRb at the Ser780 site in JeKo-1 mantle cell lymphoma cells; experiment: CDK4 cellular assay: ELISA of pRb phosphorylation at Ser780 in JeKo-1 cells; assay type: cell-based
# [4] = 0.3 nM CDK4/cyclin D1, 150 nM biotin-pRb (773-924), 3 μM ATP, 60 min at 22° C., read-out: Biochemical CDK4 enzyme IC50
# [5] = Homo sapiens, JeKo-1 cells, p-pRb % inhibition adjusted with total pRb levels, read-out: Normalized cellular ppRb inhibition IC50
# [6] = Homo sapiens, JeKo-1 cells, p-pRb Ser780 ELISA, non-normalized, read-out: Cellular ppRb inhibition IC50
# [7] = Homo sapiens, JeKo-1, JeKo-1 cells, p-pRb % inhibition adjusted with total pRb levels, read-out: Normalized cellular ppRb inhibition IC50
# [8] = Homo sapiens, JeKo-1, JeKo-1 cells, p-pRb Ser780 ELISA, non-normalized, read-out: Cellular ppRb inhibition IC50
# [9] = Homo sapiens, JeKo-1, read-out: Cellular ppRb inhibition IC50
# [10] = Homo sapiens, JeKo-1, read-out: Normalized cellular ppRb inhibition IC50
# Sequence of CDK1/cyclin B (P06493 whole entry, species assumed): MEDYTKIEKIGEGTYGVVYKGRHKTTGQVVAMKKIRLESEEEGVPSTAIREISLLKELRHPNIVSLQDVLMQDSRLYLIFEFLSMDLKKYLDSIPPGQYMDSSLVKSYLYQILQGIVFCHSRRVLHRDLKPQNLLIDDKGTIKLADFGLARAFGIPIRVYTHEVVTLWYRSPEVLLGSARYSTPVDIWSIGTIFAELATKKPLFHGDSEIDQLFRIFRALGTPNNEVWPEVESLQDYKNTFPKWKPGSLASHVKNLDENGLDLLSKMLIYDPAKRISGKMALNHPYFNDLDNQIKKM
# Sequence of CDK1/cyclin B (P14635 whole entry partner, species assumed): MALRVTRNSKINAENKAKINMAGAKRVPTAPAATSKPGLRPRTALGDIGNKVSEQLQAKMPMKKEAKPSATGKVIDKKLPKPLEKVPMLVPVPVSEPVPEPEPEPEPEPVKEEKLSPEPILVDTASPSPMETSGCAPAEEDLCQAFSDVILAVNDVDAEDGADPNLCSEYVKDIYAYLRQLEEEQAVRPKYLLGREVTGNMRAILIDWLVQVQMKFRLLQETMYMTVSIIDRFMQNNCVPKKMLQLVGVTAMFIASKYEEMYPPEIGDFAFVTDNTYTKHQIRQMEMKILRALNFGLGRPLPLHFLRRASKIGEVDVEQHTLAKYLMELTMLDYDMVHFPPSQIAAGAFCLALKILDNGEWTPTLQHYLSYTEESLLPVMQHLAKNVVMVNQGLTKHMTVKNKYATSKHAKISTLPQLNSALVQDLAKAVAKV
SMILES,IC50 ([1]; […] CDK1/cyclin B) [nM],"IC50 [2, 4] [nM]","IC50 [3, 5] [nM]","IC50 [3, 6] [nM]","IC50 [3, 7] [nM]","IC50 [3, 8] [nM]",also measured
"CN(C)C(=O)c1cc2cnc(Nc3ccc(N4C(=O)CN5CCC4CC5)cn3)nc2n1C1CCCC1 [Example 96, 7-cyclopentyl-N,N-dimethyl-2-(5-(3-oxo-1,4-diazabicyclo[3.2.2]nonan-4-yl)pyridin-2-ylamino)-7H-pyrrolo[2,3-d]pyrimidine-6-carboxamide]",10800,15 to 28,–,–,–,–,"IC50 ([3]; JeKo-1 cells, p-pRb % inhibition adjusted with total pRb levels, read-out: Normalized cellular ppRb inhibition IC50): 73 to 107 nM; IC50 ([3]; JeKo-1 cells, p-pRb Ser780 ELISA, non-normalized, read-out: Cellular ppRb inhibition IC50): 31 to 39 nM"
"CN(C)C(=O)c1cc2cnc(Nc3ccc(N4CC5COCC(CC4=O)N5)cn3)nc2n1C1CCCC1 (stereo not shown) [Example 145, 7-Cyclopentyl-2-[5-(4-oxo-8-oxa-3,10-diaza-bicyclo[4.3.1]dec-3-yl)-pyridin-2-ylamino]-7H-pyrrolo[2,3-d]pyrimidine-6-carboxylic acid dimethylamide]",> 15000,32,162,45,–,–,–
"CN(C)C(=O)c1cc2cnc(Nc3ccc(N4C[C@@H]5CC[C@H](CC4=O)N5)cn3)nc2n1-c1ccccc1 [Example 129, 2-[5-((1S,6R)-4-Oxo-3,9-diaza-bicyclo[4.2.1]non-3-yl)-pyridin-2-ylamino]-7-phenyl-7H-pyrrolo[2,3-d]pyrimidine-6-carboxylic acid dimethylamide]",> 15000,48,–,–,221,194,–
"CN(C)C(=O)c1cc2cnc(Nc3ccc(N4CC5(CC6CCC(C5)N6)OC4=O)cn3)nc2n1C1CCCCC1 [Example 94, 7-cyclohexyl-N,N-dimethyl-2-(5-((1R,3r,5S)-2′-oxo-8-azaspiro[bicyclo[3.2.1]octane-3,5′-oxazolidine]-3′-yl)pyridin-2-ylamino)-7H-pyrrolo[2,3-d]pyrimidine-6-carboxamide]",> 15000,41 to 44,–,–,34 to 206,25 to 154,–
"CN(C)C(=O)c1cc2cnc(Nc3ccc(C(=O)N4CC5CCC4C5O)cn3)nc2n1C1CCCCCC1 [Example 7, 7-cycloheptyl-2-(5-((1R,4R,7R)-7-hydroxy-2-azabicyclo[2.2.1]heptane-2-carbonyl)pyridin-2-ylamino)-N,N-dimethyl-7H-pyrrolo[2,3-d]pyrimidine-6-carboxamide]",17600,21,288,127,–,–,–
"CN(C)C(=O)c1cc2cnc(Nc3ccc(N4C[C@@H]5CNC[C@@H]5C4=O)cn3)nc2n1C1CCCCCC1 [Example 82, 7-cycloheptyl-N,N-dimethyl-2-(5-((3aS,6aR)-1-oxohexahydropyrrolo[3,4-c]pyrrol-2(1H)-yl)pyridin-2-ylamino)-7H-pyrrolo[2,3-d]pyrimidine-6-carboxamide]",2660,4,9,5,–,–,–
"CN(C)C(=O)c1cc2cnc(Nc3ccc(N4CC5(CCNCC5)OC4=O)cn3)nc2n1C1CCCC1 [Example 119, 7-cyclopentyl-N,N-dimethyl-2-(5-(2-oxo-1-oxa-3,8-diazaspiro[4.5]decan-3-yl)pyridin-2-ylamino)-7H-pyrrolo[2,3-d]pyrimidine-6-carboxamide]",> 15000,12,72 to 83,26 to 47,–,–,–
"CN(C)C(=O)c1cc2cnc(Nc3ccc(N4CC5CNCC5C4=O)cn3)nc2n1C1CCCCCC1 (stereo not shown) [Example 81, 7-Cycloheptyl-2-[5-(1-oxo-hexahydro-pyrrolo[3,4-c]pyrrol-2-yl)-pyridin-2-ylamino]-7H-pyrrolo[2,3-d]pyrimidine-6-carboxylic acid dimethylamide]",–,–,–,–,–,–,"IC50 ([1]; 0.25 nM CDK1/cyclin B): 3810 nM; IC50 [2]: < 5 nM; IC50 [3, 9]: 3 nM; IC50 [3, 10]: 4 nM"
"CN(C)C(=O)c1cc2cnc(Nc3ccc(N4C[C@@H]5CC[C@H](CC4=O)N5)cn3)nc2n1C1CCC1 [Example 135, 7-Cyclobutyl-2-[5-((1S,6R)-4-oxo-3,9-diaza-bicyclo[4.2.1]non-3-yl)-pyridin-2-ylamino]-7H-pyrrolo[2,3-d]pyrimidine-6-carboxylic acid dimethylamide]",> 15000,7,–,–,38,19,–
"CN(C)C(=O)c1cc2cnc(Nc3ccc(N4C[C@H]5CNC[C@H]5CC4=O)cn3)nc2n1C1CCCC1 (stereo in doubt) [Example 91, 7-cyclopentyl-N,N-dimethyl-2-(5-(cis-6-oxotetrahydro-1H-pyrrolo[3,4-c]pyridin-5(6H,7H,7aH)-yl)pyridin-2-ylamino)-7H-pyrrolo[2,3-d]pyrimidine-6-carboxamide]",–,5 to 7,–,–,–,–,"IC50 ([1]; 0.25 nM CDK1/cyclin B): 13300 to 14900 nM; IC50 [3, 9]: 10 to 27 nM; IC50 [3, 10]: 22 to 74 nM"
"CN(C)C(=O)c1cc2cnc(Nc3ccc(N4CC5CNCC5CC4=O)cn3)nc2n1C1CCCC1 (racemic) [Example 90, 7-cyclopentyl-N,N-dimethyl-2-(5-(cis-6-oxotetrahydro-1H-pyrrolo[3,4-c]pyridin-5(6H,7H,7aH)-yl)pyridin-2-ylamino)-7H-pyrrolo[2,3-d]pyrimidine-6-carboxamide]",> 15000,5,–,–,14 to 56,9 to 34,–
"CN(C)C(=O)c1cc2cnc(Nc3ccc(N4C[C@]5(CCCNCC5)OC4=O)cn3)nc2n1C1CCCC1 [Example 106, 7-Cyclopentyl-2-[5-((R)-2-oxo-1-oxa-3,8-diaza-spiro[4.6]undec-3-yl)-pyridin-2-ylamino]-7H-pyrrolo[2,3-d]pyrimidine-6-carboxylic acid dimethylamide]",> 15000,15,114,70,–,–,–
"CN(C)C(=O)c1cc2cnc(Nc3ccc(N4CCC5(CCCN5)C4=O)cn3)nc2n1C1CCCOC1 (stereo not shown) [Example 121, N,N-dimethyl-2-(5-(6-oxo-1,7-diazaspiro[4.4]nonan-7-yl)pyridin-2-ylamino)-7-(tetrahydro-2H-pyran-3-yl)-7H-pyrrolo[2,3-d]pyrimidine-6-carboxamide]",> 15000,79 to 107,199 to 791,184 to 489,–,–,–
"CN(C)C(=O)c1cc2cnc(Nc3ccc(N4C[C@H]5CC[C@@H](CC4=O)N5C)cn3)nc2n1C1CCCC1 [Example 140, 7-cyclopentyl-N,N-dimethyl-2-(5-((1R,6S)-9-methyl-4-oxo-3,9-diazabicyclo[4.2.1]nonan-3-yl)pyridin-2-ylamino)-7H-pyrrolo[2,3-d]pyrimidine-6-carboxamide]",> 15000,5 to 6,–,–,11 to 18,5 to 9,–
"CN(C)C(=O)c1cc2cnc(Nc3ccc(C(=O)N4CC5CCC(C4)N5C)cn3)nc2n1C1CCCC1 [Example 45, 7-cyclopentyl-2-[5-(8-methyl-3,8-diaza-bicyclo[3.2.1]octane-3-carbonyl)-pyridin-2-ylamino]-7H-pyrrolo[2,3-d]pyrimidine-6-carboxylic acid dimethylamide]",12800,14 to 24,–,–,64,64,–
"CN(C)C(=O)c1cc2cnc(Nc3ccc(C(=O)N4CC5CCC(C4)N5)cn3)nc2n1[C@H]1CC[C@H](C(C)(C)C)CC1 [Example 37, 7-(4-tert-Butyl-cyclohexyl)-2-[5-(3,8-diaza-bicyclo[3.2.1]octane-3-carbonyl)-pyridin-2-ylamino]-7H-pyrrolo[2,3-d]pyrimidine-6-carboxylic acid dimethylamide]",> 15000,–,–,–,288 to 438,121 to 301,IC50 [2]: 5 to 6 nM
"CN1CCCC2(CC1)CN(c1ccc(Nc3ncc4cc(C(=O)N(C)C)n(C5CCCC5)c4n3)nc1)C(=O)O2 (stereo not shown) [Example 104, 7-Cyclopentyl-2-[5-(8-methyl-2-oxo-1-oxa-3,8-diaza-spiro[4.6]undec-3-yl)-pyridin-2-ylamino]-7H-pyrrolo[2,3-d]pyrimidine-6-carboxylic acid dimethylamide]",> 15000,20,64,29,–,–,–
"CC(C)[C@@H](N)C(=O)N1C2CCC1CN(C(=O)c1ccc(Nc3ncc4cc(C(=O)N(C)C)n(C5CCCC5)c4n3)nc1)C2 [Example 62, 2-{5-[8-((R)-2-Amino-3-methyl-butyryl)-3,8-diaza-bicyclo[3.2.1]octane-3-carbonyl]-pyridin-2-ylamino}-7-cyclopentyl-7H-pyrrolo[2,3-d]pyrimidine-6-carboxylic acid dimethylamide]",39900,10,723,291,–,–,–
"CC(=O)N1C2CCC1CN(C(=O)c1ccc(Nc3ncc4cc(C(=O)N(C)C)n(C5CCCCCC5)c4n3)nc1)C2 [Example 8, 2-(5-(8-acetyl-3,8-diazabicyclo[3.2.1]octane-3-carbonyl)pyridin-2-ylamino)-7-cycloheptyl-N,N-dimethyl-7H-pyrrolo[2,3-d]pyrimidine-6-carboxamide]",> 15000,39,259,72,–,–,–
